We go through 35 compounds from ChEMBL document CHEMBL4184329, “Identification and Structure-Activity Relationship of HDAC6 Zinc-Finger Ubiquitin Binding Domain Inhibitors” (J Med Chem, 2018).

The target in assay [1] is T1, Protein deacetylase HDAC6 (Homo sapiens, UniProt Q9UBN7).
T1 sequence (Q9UBN7 whole entry): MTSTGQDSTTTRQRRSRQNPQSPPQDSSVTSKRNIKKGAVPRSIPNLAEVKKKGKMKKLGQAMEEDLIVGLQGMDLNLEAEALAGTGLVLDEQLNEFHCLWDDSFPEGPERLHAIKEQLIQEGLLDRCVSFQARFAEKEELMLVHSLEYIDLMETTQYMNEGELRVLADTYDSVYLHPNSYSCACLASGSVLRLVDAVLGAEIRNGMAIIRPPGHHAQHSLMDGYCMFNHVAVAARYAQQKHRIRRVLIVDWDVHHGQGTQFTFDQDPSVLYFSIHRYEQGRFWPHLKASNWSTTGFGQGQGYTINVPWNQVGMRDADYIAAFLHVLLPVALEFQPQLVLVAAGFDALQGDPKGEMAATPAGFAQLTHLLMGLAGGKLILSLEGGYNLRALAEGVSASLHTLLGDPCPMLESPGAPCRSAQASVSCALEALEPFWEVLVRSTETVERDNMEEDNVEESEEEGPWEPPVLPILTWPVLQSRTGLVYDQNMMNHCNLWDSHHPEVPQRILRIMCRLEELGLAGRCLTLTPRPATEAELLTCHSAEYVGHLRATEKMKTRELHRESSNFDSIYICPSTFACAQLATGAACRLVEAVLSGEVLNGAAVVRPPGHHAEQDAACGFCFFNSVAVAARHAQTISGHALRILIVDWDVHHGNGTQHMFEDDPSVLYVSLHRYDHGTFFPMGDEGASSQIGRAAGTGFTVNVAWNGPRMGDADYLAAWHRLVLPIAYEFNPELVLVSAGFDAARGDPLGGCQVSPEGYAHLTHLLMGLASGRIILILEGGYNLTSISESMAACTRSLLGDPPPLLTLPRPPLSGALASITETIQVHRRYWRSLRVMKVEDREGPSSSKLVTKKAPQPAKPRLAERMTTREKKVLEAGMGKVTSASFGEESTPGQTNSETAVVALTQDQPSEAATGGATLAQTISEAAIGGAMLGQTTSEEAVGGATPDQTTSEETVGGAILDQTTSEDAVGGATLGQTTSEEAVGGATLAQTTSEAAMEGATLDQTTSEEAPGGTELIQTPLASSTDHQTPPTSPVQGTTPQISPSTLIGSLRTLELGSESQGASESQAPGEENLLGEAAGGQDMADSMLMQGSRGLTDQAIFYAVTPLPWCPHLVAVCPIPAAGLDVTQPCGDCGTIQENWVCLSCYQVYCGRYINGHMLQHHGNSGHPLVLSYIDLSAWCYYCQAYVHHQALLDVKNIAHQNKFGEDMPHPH
Nature of the assay: Displacement of N-terminal FITC-labeled RLRGG from N-terminal AviTag/C-terminal His6-tagged HDAC6 ZnF-UBD (unknown origin) expressed in Escherichia coli BL21 (DE3) after 10 mins by fluorescence polarization assay.

The target of assay [2] is T1, Protein deacetylase HDAC6. Nature of the assay: Binding affinity to biotinylated HDAC6 ZnF-UBD (unknown origin) by surface plasmon resonance method.

For orientation: IC50 means the concentration at which inhibition is half-maximal. A word on the Kd: it is the constant that tells how readily two partners part at equilibrium. Read a high Kd as weaker binding.

Take `Cn1c(CCC(=O)O)nc2ccccc21`: the IC50 in assay [1] (read-out: IC50) was found to be 100 µM. For the compound `COC(=O)CCc1nc2ccccc2nc1OC`, the IC50 entry in assay [1] is on record as “Not Active”.

Take `O=C(O)Cc1nc2ccccc2s1`: the IC50 in assay [1] (read-out: IC50) is 390 µM.

On to `COc1cc2ncn(CC(=O)O)c(=O)c2cc1OC`, for which the IC50 in assay [1] (read-out: IC50) came out at 44 µM. Consider `O=C(O)CCc1nc2cc(Cl)ccc2n(Cc2ccccc2)c1=O`, for which the IC50 in assay [1] (read-out: IC50) was 150 µM.

Regarding `O=C(O)CCc1nc2cc3nc(CCC(=O)O)sc3cc2s1`, the IC50 in assay [1] (read-out: IC50) came out at 5.1 µM. Further, binding in assay [2] was put at a Kd of 8 µM. On to `NC(=O)c1cc(-n2c(CCC(=O)O)nc3ccccc32)cs1`, for which the IC50 in assay [1] (read-out: IC50) was found to be 640 µM. As to `COc1nccnc1CCC(=O)O`, the IC50 entry in assay [1] is on record as “Not Active”. For `CNC(=O)CCc1nc2ccccc2nc1OC`, the IC50 entry in assay [1] is on record as “Not Active”. Take `O=C(O)Cn1cnc2ccc(Br)cc2c1=O`: the IC50 in assay [1] (read-out: IC50) worked out at 200 µM. For `O=C(O)CCn1nnc2ccccc2c1=O`, the IC50 in assay [1] (read-out: IC50) came to 240 µM. Turning to `O=C(O)Cn1nc(O)c2ccccc2c1=O`, the IC50 in assay [1] (read-out: IC50) was 200 µM. Same read-out and setting: the same measure for `Cn1c(=O)c(CCC(=O)O)nc2ccccc21`: 65 µM; for `O=C(O)Cn1cnc2c(oc3ccccc32)c1=O`: 51 µM; for `Cc1cc(C)c2c(n1)sc1c(=O)n(CC(=O)O)cnc12`: 190 µM.

Consider `O=C(O)C(O)C(O)c1nc2ccccc2s1` (stereo unspecified), for which the IC50 entry in assay [1] is recorded as “Not Active”. The same measure, in the same setting: under `O=C(O)CCc1nc2ccccc2o1` stands “Not Active”. Consider `COc1nc2ccccc2nc1CCC(=O)O`, for which the IC50 in assay [1] (read-out: IC50) came out at 45 µM. Take `CS(=O)(=O)Cc1nc2ccccc2n1CC(=O)Nc1cccc(NC(N)=O)c1`: the IC50 entry in assay [1] is reported as “Not Active”.

`O=C(O)Cn1cnc2ccccc2c1=O`: the IC50 in assay [1] (read-out: IC50) was determined as 320 µM. Turning to `CC(Cc1nc2ccccc2s1)C(=O)O` (stereo unspecified), the IC50 entry in assay [1] is recorded as “Not Active”.

Turning to `O=C(O)Cc1ccc2ccccc2n1`, in assay [1], the IC50 entry was “Not Active”.

Consider `COc1cc2ncn(CCC(=O)O)c(=O)c2cc1OC`, for which the IC50 in assay [1] (read-out: IC50) worked out at 95 µM. Regarding `N#Cc1c2n(c3c(=O)n(CC(=O)O)cnc13)CCCC2`, the IC50 in assay [1] (read-out: IC50) was 77 µM. Take `O=C(O)CCc1ccc2ccccc2n1`: the IC50 in assay [1] (read-out: IC50) is > 720 µM. As to `O=C(O)CCc1cc2ccccc2o1`, the IC50 result in assay [1] is “Not Active”.

Consider `O=C(O)CCc1nc2ccccc2[nH]1` [PROCODAZOLE], for which, in assay [1], the IC50 result is reported as “Not Active”. With `O=C(O)CCCc1nc2ccccc2s1`, the IC50 entry in assay [1] is recorded as “Not Active”.

For `O=C(O)CCc1nc2ccccc2s1`, the IC50 in assay [1] (read-out: IC50) is 180 µM. Regarding `COC(CC(=O)O)c1nc2ccccc2s1` (stereo unspecified), in assay [1], the IC50 entry is “Not Active”. Regarding `O=C(O)CCc1nc2ccccc2c2nc(=O)c(Cc3ccccc3)nn12`, the IC50 in assay [1] (read-out: IC50) is 25 µM. As to `COc1nc2ccccc2nc1CCC(N)=O`, the IC50 result in assay [1] is recorded as “Not Active”. Regarding `CN(C(=O)Cn1c(CS(C)(=O)=O)nc2ccccc21)c1ccccc1`, in assay [1], the IC50 result was “Not Active”. Consider `O=C(O)CCc1nc(O)c2ccccc2n1`, for which the IC50 in assay [1] (read-out: IC50) amounted to 230 µM.

`COC(Cc1nc2ccccc2s1)C(=O)O` (stereo unspecified): the IC50 entry in assay [1] is “Not Active”.
